ChEMBL document CHEMBL1132127, “Thrombin inhibitors based on [5,5] trans-fused indane lactams” (Bioorg Med Chem Lett, 1999)
pIC50: −log10 of the molar value.

Columns and labels:
Prothrombin = Prothrombin (Homo sapiens, UniProt P00734)
Coagulation factor X = Coagulation factor X (Homo sapiens, UniProt P00742)
Description: Inhibition of activated Coagulation factor X

Serine protease 1 = Serine protease 1 (Homo sapiens, UniProt P07477)
[1] = Half life time in human plasma; type: ADME, cell-free

Serine protease 1, sequence (P07477 whole entry): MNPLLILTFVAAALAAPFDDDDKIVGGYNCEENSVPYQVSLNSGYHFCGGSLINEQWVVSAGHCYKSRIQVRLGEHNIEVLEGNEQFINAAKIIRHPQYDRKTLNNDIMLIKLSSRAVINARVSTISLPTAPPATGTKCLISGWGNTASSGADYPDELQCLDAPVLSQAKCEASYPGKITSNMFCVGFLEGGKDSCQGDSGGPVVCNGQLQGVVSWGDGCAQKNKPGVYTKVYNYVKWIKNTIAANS
Coagulation factor X, sequence (P00742 41-179 limits assumed): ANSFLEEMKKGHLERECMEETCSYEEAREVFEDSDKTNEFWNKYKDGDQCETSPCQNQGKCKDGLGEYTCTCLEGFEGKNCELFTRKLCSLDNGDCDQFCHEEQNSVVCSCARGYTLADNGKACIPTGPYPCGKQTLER
Coagulation factor X, sequence (P00742 235-488 limits assumed): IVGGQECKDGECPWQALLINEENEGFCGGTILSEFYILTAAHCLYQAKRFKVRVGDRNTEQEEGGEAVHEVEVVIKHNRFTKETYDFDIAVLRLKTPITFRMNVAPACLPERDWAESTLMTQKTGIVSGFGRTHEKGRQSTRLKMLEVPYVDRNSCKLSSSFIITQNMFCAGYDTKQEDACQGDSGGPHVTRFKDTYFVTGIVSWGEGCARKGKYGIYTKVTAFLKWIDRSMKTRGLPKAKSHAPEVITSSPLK

Row | pIC50 (Prothrombin) | pIC50 (Coagulation factor X) | pIC50 (Serine protease 1) | half-life [1] [h] | Compound
1 | 5.30 | 4.59 | 5.08 |  | CCN(CC)C(=O)c1cccc(-c2ccc3c(c2)C[C@H]2[C@H]3[C@@H](CCCCC(=N)N)C(=O)N2CCCCCc2ccccc2)c1
2 | 7.30 | 5.66 | 5.66 | 17 | CCN(CC)C(=O)c1cccc(-c2ccc3c(c2)[C@@H]2[C@@H](CCCCC(=N)N)C(=O)N(C(=O)OC)[C@H]2C3)c1
3 | 6.18 | 5.44 | 6.21 |  | CCN(CC)C(=O)c1cccc(-c2ccc3c(c2)C[C@H]2[C@H]3[C@@H](CCCCC(=N)N)C(=O)N2C(=O)OCCCc2ccccc2)c1
4 | 5.49 | 4.70 | 5.77 |  | CCOP(=O)(OCC)N1C(=O)[C@H](CCCCC(=N)N)[C@H]2c3ccc(-c4cccc(C(=O)N(CC)CC)c4)cc3C[C@@H]21
5 | 4.92 | 4.85 | 4.44 |  | CCN(CC)C(=O)c1cccc(-c2ccc3c(c2)[C@@H]2[C@@H](CCCCC(=N)N)C(=O)N(COC(C)=O)[C@H]2C3)c1
6 | 6.42 | 5.00 | 5.08 |  | CCC(=O)N1C(=O)[C@H](CCCCC(=N)N)[C@H]2c3cc(-c4cccc(C(=O)N(CC)CC)c4)ccc3C[C@@H]21
7 | 4.96 | < 4.70 | < 4.70 |  | CCN(CC)C(=O)c1cccc(-c2ccc3c(c2)[C@@H]2[C@@H](CCCCC(=N)N)C(=O)N(C(=O)N(C)C)[C@H]2C3)c1
8 | < 3.70 | < 3.70 | < 3.70 | > 24 | N=C(N)CCCC[C@H]1C(=O)N[C@H]2Cc3ccccc3[C@@H]21
9 | 5.30 | < 4.30 | < 4.30 |  | CCN(CC)C(=O)c1cccc(-c2ccc3c(c2)[C@@H]2[C@@H](CCCCC(=N)N)C(=O)N(CCCCCc4ccccc4)[C@H]2C3)c1
10 | 7.80 | 6.92 |  | 24 | CCN(CC)C(=O)c1cccc(-c2ccc3c(c2)C[C@H]2[C@H]3[C@@H](CCCCC(=N)N)C(=O)N2C(=O)OC)c1
11 | 6.89 | 5.43 | 5.64 |  | CCN(CC)C(=O)c1cccc(-c2ccc3c(c2)[C@@H]2[C@@H](CCCCC(=N)N)C(=O)N(C(=O)OCCCc4ccccc4)[C@H]2C3)c1
12 | 4.37 | < 3.70 | < 3.70 |  | COC(=O)CN1C(=O)[C@H](CCCCC(=N)N)[C@H]2c3ccccc3C[C@@H]21
13 | 4.89 | < 4.00 | 5.01 |  | N=C(N)CCCC[C@H]1C(=O)N(CCCCCc2ccccc2)[C@H]2Cc3ccccc3[C@H]12
14 | 5.52 | < 4.00 | < 4.00 |  | CCNC(=O)N1C(=O)[C@H](CCCCC(=N)N)[C@H]2c3cc(-c4cccc(C(=O)N(CC)CC)c4)ccc3C[C@@H]21

Row | Compound | pIC50 (Prothrombin) | pIC50 (Coagulation factor X) | pIC50 (Serine protease 1) | half-life [1] [h]
15 | CC(=O)O[C@@H]1CC[C@]2(C)C3CC[C@@]4(C)[C@H]5[C@@H](C[C@]4(C)C3=CCC2[C@]1(C)C(=O)O)OC(=O)[C@@H]5CC(=O)C=C(C)C (stereo partly drawn) | 5.40 |  |  | 
16 | CCN(CC)C(=O)c1cccc(-c2ccc3c(c2)[C@@H]2[C@@H](CCCCC(=N)N)C(=O)N(S(=O)(=O)c4ccccc4)[C@H]2C3)c1 | 7.80 | 7.13 | 7.18 | 
